Laboratory results: BindingDB's records for doi:10.1016/j.bmcl.2010.09.117 (University of London, 2010)

Target: Signal transducer and activator of transcription 3 (Homo sapiens, UniProt P40763)
Assay: Inhibition of STAT3 in human HeLa cells by luciferase reporter assay

Signal transducer and activator of transcription 3, sequence (P40763 whole entry): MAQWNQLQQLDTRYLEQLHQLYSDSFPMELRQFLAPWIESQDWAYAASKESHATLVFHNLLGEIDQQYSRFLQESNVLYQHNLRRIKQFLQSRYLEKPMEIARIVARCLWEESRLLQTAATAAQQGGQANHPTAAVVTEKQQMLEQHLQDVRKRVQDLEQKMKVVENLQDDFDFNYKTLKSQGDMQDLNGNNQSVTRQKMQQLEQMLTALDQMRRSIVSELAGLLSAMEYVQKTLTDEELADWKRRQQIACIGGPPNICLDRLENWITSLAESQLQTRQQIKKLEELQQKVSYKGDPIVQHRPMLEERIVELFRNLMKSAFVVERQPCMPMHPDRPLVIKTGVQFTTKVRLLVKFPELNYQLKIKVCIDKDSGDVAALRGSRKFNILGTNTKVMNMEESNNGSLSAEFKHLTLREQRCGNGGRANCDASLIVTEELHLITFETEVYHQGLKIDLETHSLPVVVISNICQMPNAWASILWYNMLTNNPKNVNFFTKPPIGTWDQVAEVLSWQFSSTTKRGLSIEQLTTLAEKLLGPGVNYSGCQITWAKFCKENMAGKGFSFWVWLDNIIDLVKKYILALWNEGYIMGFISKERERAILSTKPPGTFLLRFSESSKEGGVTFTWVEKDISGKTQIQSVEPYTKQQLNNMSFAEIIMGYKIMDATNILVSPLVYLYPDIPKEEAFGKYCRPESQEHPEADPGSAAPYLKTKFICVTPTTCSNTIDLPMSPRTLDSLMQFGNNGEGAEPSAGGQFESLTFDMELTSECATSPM

Structure (SMILES): Cc1ccc(-c2sc(C(=O)NCc3cccs3)cc2S(=O)(=O)N2CCCC2)cc1 [4-(pyrrolidin-1-ylsulfonyl)-N-(thiophen-2-ylmethyl)-5-p-tolylthiophene-2-carboxamide]
- EC50: 15 µM
